Consider 16 compounds from PubChem BioAssay AID220 (DTP/NCI, 2004).

Values joined by “and” are separate entries in the source; they are usually repeats but may differ in a detail not shown here. Equal entries are not always repeated. Inconclusive results are not listed.

The subject of the test is CD8F1 mice, subcutaneous mammary adenocarcinoma, T/C%. Put plainly: NCI In Vivo Anticancer Drug Screen. Data for tumor model Mammary Adenocarcinoma CD8F1 (subcutaneous) in CD8F1. As to conditions: higher = larger tumour. The procedure: The antitumor activity of compounds was measured in mice bearing transplantable tumors. Survival or tumor size were measured and the results are expressed as the measurement made in the treated group (T) divided by the measurement made in the vehicle treated control group (C). The tumor model used in this assay is Mammary Adenocarcinoma CD8F1 (subcutaneous) in CD8F1

[1] abbreviates: endpoint: median tumor weight (est.), dose: 25.0 mg/kg/injection, schedule: Q07DX005 (ip), vehicle: saline.
The mark [2] stands for this setting: endpoint: median tumor weight (est.), dose: 50.0 mg/kg/injection, schedule: Q07DX005 (ip), vehicle: saline.
Where [3] appears, read: endpoint: median tumor weight (est.), dose: 100.0 mg/kg/injection, schedule: Q07DX005 (ip), vehicle: saline.
Where [4] appears, read: endpoint: median tumor weight (est.), dose: 200.0 mg/kg/injection, schedule: Q07DX005 (ip), vehicle: saline.
Setting [5] is: endpoint: median tumor weight (est.), dose: 12.5 mg/kg/injection, schedule: Q07DX005 (ip), vehicle: saline.
Where [6] appears, read: endpoint: median tumor weight change, dose: 125.0 mg/kg/injection, schedule: Q01DX001 (ip), vehicle: saline with Tween-80.
The mark [7] stands for this setting: endpoint: median tumor weight change, dose: 250.0 mg/kg/injection, schedule: Q01DX001 (ip), vehicle: saline with Tween-80.
Where [8] appears, read: endpoint: median tumor weight (est.), dose: 100.0 mg/kg/injection, schedule: Q07DX005 (ip), vehicle: Klucel (hydroxypropylcellulose) (HPC).
Where [9] appears, read: endpoint: median tumor weight (est.), dose: 200.0 mg/kg/injection, schedule: Q07DX005 (ip), vehicle: Klucel (hydroxypropylcellulose) (HPC).
Where [10] appears, read: endpoint: median tumor weight (est.), dose: 400.0 mg/kg/injection, schedule: Q07DX005 (ip), vehicle: Klucel (hydroxypropylcellulose) (HPC).
Setting [11] is: endpoint: median tumor weight change, dose: 500.0 mg/kg/injection, schedule: Q01DX001 (ip), vehicle: saline with Tween-80.
Setting [12] is: endpoint: median tumor weight change, dose: 1000.0 mg/kg/injection, schedule: Q01DX001 (ip), vehicle: saline with Tween-80.
Setting [13] is: endpoint: median tumor weight (est.), dose: 12.5 mg/kg/injection, schedule: Q07DX005 (ip), vehicle: saline with Tween-80.
Setting [14] is: endpoint: median tumor weight (est.), dose: 50.0 mg/kg/injection, schedule: Q07DX005 (ip), vehicle: saline with Tween-80.
The mark [15] stands for this setting: endpoint: median tumor weight (est.), dose: 200.0 mg/kg/injection, schedule: Q07DX005 (ip), vehicle: saline with Tween-80.
The mark [16] stands for this setting: endpoint: median tumor weight (est.), dose: 400.0 mg/kg/injection, schedule: Q07DX005 (ip), vehicle: saline with Tween-80.
[17] abbreviates: endpoint: median tumor weight (est.), dose: 25.0 mg/kg/injection, schedule: Q07DX005 (ip), vehicle: saline with Tween-80.
[18] abbreviates: endpoint: median tumor weight (est.), dose: 100.0 mg/kg/injection, schedule: Q07DX005 (ip), vehicle: saline with Tween-80.

Turning to `CCCC(=O)Nc1ncnc2c1ncn2C1OC2COP(=O)(O)OC2C1OC(=O)CCC` (stereo not given), the T/C is 100 % of control (endpoint: mean tumor weight, dose: 50.0 mg/kg/injection, schedule: Q01DX009 (ip), vehicle: saline); 117 % of control (endpoint: mean tumor weight, dose: 100.0 mg/kg/injection, schedule: Q07DX007 (ip), vehicle: saline); 111 % of control (endpoint: mean tumor weight, dose: 200.0 mg/kg/injection, schedule: Q01DX009 (ip), vehicle: saline); 78 % of control (endpoint: mean tumor weight, dose: 200.0 mg/kg/injection, schedule: Q07DX007 (ip), vehicle: saline); 55 % of control (endpoint: mean tumor weight, dose: 400.0 mg/kg/injection, schedule: Q01DX009 (ip), vehicle: saline); 43 % of control (endpoint: mean tumor weight, dose: 400.0 mg/kg/injection, schedule: Q07DX007 (ip), vehicle: saline). Further, the T/C by setting is: under setting [1], 75 % of control; under setting [2], 114 % of control; under setting [3], 122 % of control; under setting [4], 77 % of control; (endpoint: median tumor weight (est.), dose: 400.0 mg/kg/injection, schedule: Q07DX005 (ip), vehicle: saline) 83 % of control; (endpoint: median tumor weight (est.), dose: 800.0 mg/kg/injection, schedule: Q07DX005 (ip), vehicle: saline) 72 % of control.

Regarding `c1ccc2c(c1)-c1ccccc1C1NC21` (stereo not given), the T/C (endpoint: median tumor weight change, dose: 62.0 mg/kg/injection, schedule: Q01DX001 (ip), vehicle: saline with Tween-80) was 58 % of control.

As to `O=C1C=CN(C2OC(CO)C(O)C2O)C(=O)C1` (stereo not given), the T/C by setting is: under setting [5], 97 % of control; under setting [1], 99 % of control; under setting [2], 101 % of control; under setting [3], 120 % of control; under setting [4], 78 % of control.

`CN=C(N)N/N=C(\C)c1ccc2c(c1)Cc1ccccc1-2`: the T/C runs as follows: under setting [6], 60 % of control; under setting [7], 55 % of control.

With `O=c1[nH]c(=O)n([C@H]2CCCO2)cc1F`, the T/C by setting is: (endpoint: median tumor weight (est.), dose: 12.5 mg/kg/injection, schedule: Q07DX005 (ip), vehicle: Klucel (hydroxypropylcellulose) (HPC)) 100 % of control; (endpoint: median tumor weight (est.), dose: 20.0 mg/kg/injection, schedule: Q07DX005 (ip), vehicle: Klucel (hydroxypropylcellulose) (HPC)) 82 % of control; (endpoint: median tumor weight (est.), dose: 40.0 mg/kg/injection, schedule: Q07DX005 (ip), vehicle: Klucel (hydroxypropylcellulose) (HPC)) 97 % of control; (endpoint: median tumor weight (est.), dose: 50.0 mg/kg/injection, schedule: Q07DX005 (ip), vehicle: Klucel (hydroxypropylcellulose) (HPC)) 102 % of control; under setting [8], 84 % of control; (endpoint: median tumor weight (est.), dose: 160.0 mg/kg/injection, schedule: Q07DX005 (ip), vehicle: Klucel (hydroxypropylcellulose) (HPC)) 91 % of control. Further, the T/C runs as follows: under setting [9], 95 % of control; (endpoint: median tumor weight (est.), dose: 320.0 mg/kg/injection, schedule: Q07DX005 (ip), vehicle: Klucel (hydroxypropylcellulose) (HPC)) 10 % of control; under setting [10], 4 % of control.

Turning to `C=COC(=O)C(Cc1ccccc1)NC(=O)OCc1ccccc1` (stereo not given), the T/C (endpoint: median tumor weight change, dose: 62.5 mg/kg/injection, schedule: Q01DX001 (ip), vehicle: saline with Tween-80) was 103 % of control; the T/C under setting [6] was 58 % of control; the T/C under setting [7] is 46 % of control; the T/C under setting [11] was 33 % of control; the T/C under setting [12] was 75 % of control.

As for `C[n+]1c(-c2cccc3ccccc23)c2cc(N)ccc2c2ccccc21`, the T/C is, setting by setting: (endpoint: median tumor weight (est.), dose: 3.12 mg/kg/injection, schedule: Q07DX005 (ip), vehicle: saline) 71 % of control; (endpoint: median tumor weight (est.), dose: 6.25 mg/kg/injection, schedule: Q07DX005 (ip), vehicle: saline) 99 % of control; under setting [5], 49 % of control.

`CC(=Nc1ccccc1)C1=C(O)C(Cc2ccccc2)NC1=O` (stereo not given): the T/C by setting is: under setting [13], 218 % of control and 100 % of control; under setting [14], 89 % of control; under setting [15], 211 % of control and 85 % of control; under setting [16], 39 % of control and 62 % of control.

For the compound `S=c1[nH]cc2cnccn12`, the T/C reads like this: under setting [13], 92 % of control; under setting [17], 105 % of control; under setting [18], 85 % of control; under setting [15], 56 % of control.

Take `O=[Te]=O`: the T/C (endpoint: median tumor weight change, dose: 6.25 mg/kg/injection, schedule: Q01DX001 (ip), vehicle: suspension in saline) was 73 % of control; the T/C (endpoint: median tumor weight change, dose: 12.5 mg/kg/injection, schedule: Q01DX001 (ip), vehicle: suspension in saline) was 83 % of control; the T/C (endpoint: median tumor weight change, dose: 25.0 mg/kg/injection, schedule: Q01DX001 (ip), vehicle: suspension in saline) was 61 % of control; the T/C (endpoint: median tumor weight change, dose: 50.0 mg/kg/injection, schedule: Q01DX001 (ip), vehicle: suspension in saline) was 94 % of control; the T/C (endpoint: median tumor weight change, dose: 100.0 mg/kg/injection, schedule: Q01DX001 (ip), vehicle: suspension in saline) is 106 % of control.

`CCCC(=O)O`: the T/C (endpoint: median tumor weight change, dose: 7.81 mg/kg/injection, schedule: Q01DX001 (ip), vehicle: saline) is 88 % of control; the T/C (endpoint: median tumor weight change, dose: 15.62 mg/kg/injection, schedule: Q01DX001 (ip), vehicle: saline) is 166 % of control; the T/C (endpoint: median tumor weight change, dose: 31.25 mg/kg/injection, schedule: Q01DX001 (ip), vehicle: saline) was 97 % of control; the T/C (endpoint: median tumor weight change, dose: 62.5 mg/kg/injection, schedule: Q01DX001 (ip), vehicle: saline) is 80 % of control; the T/C (endpoint: median tumor weight change, dose: 125.0 mg/kg/injection, schedule: Q01DX001 (ip), vehicle: saline) is 71 % of control.

As to `NCC1CCC(C(=O)O)CC1` (stereo not given), the T/C runs as follows: under setting [6], 63 % of control; under setting [7], 86 % of control; under setting [11], 36 % of control; under setting [12], 97 % of control; (endpoint: median tumor weight change, dose: 2000.0 mg/kg/injection, schedule: Q01DX001 (ip), vehicle: saline with Tween-80) 62 % of control.

Regarding `COC1=CC(=O)N(C(=O)C2CSC(C(CO)NC(=O)c3csc(/C=N/O)n3)=N2)C1` (stereo not given), the T/C reads like this: under setting [8], 83 % of control; under setting [9], 102 % of control; under setting [10], 100 % of control.

Take `CNC(=O)/C=C/C1=CN2C(=O)c3ccc(C)c(O)c3NC(OC)C2C1` (stereo not given): the T/C (endpoint: median tumor weight change, dose: 0.03 mg/kg/injection, schedule: Q01DX001 (ip), vehicle: suspension in saline) is 70 % of control; the T/C (endpoint: median tumor weight change, dose: 0.07 mg/kg/injection, schedule: Q01DX001 (ip), vehicle: suspension in saline) is 51 % of control; the T/C (endpoint: median tumor weight change, dose: 0.31 mg/kg/injection, schedule: Q01DX001 (ip), vehicle: saline) is 150 % of control; the T/C (endpoint: median tumor weight change, dose: 0.62 mg/kg/injection, schedule: Q01DX001 (ip), vehicle: saline) was 83 % of control.

With `Cc1ccccc1SSc1ccccc1C`, the T/C is, setting by setting: under setting [14], 159 % of control; under setting [18], 123 % of control; under setting [15], 179 % of control.

`COc1ccc2cc1Oc1ccc(cc1)C[C@H]1c3cc(c(OC)cc3CCN1C)Oc1c(OC)c(OC)cc3c1[C@H](C2)N(C)CC3`: the T/C is, setting by setting: under setting [17], 115 % of control; under setting [14], 102 % of control; under setting [18], 117 % of control; under setting [15], 64 % of control; under setting [16], 37 % of control.
